Patent publication US6858591B2, “Antibiotic AA 896 analogs” (Wyeth Holdings Corporation, priority 2001, dated 2005)
Values after ≈ are worked out from the molar mass of the structure shown. Like-named read-outs stand apart in the source and are kept apart here.

Key:
Experiment in all cases: In vitro MIC, broth dilution
Assay type in all cases: cell-based
E. cloacae GC 3783 = settings: Enterobacter cloacae, GC3783
P. aeruginosa GC 4532 = settings: Pseudomonas aeruginosa, GC4532
E. coli GC 3226 = settings: Escherichia coli, GC3226
E. coli GC 4560 = settings: Escherichia coli, GC4560
S. marcescens GC 4077 = settings: Serratia marcescens, GC4077
E. coli GC 4559 = settings: Escherichia coli, GC4559
E. faecalis GC 4555 = settings: Enterococcus faecalis, GC4555
Procedure, shortened: (§1)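 Lowest concentration blocking bacterial growth, read after 18 h at 35 °C in ambient air. Mueller-Hinton II broth dilution, 5×10^5 CFU/ml inoculum, drug range 64-0.06 μg/ml.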

CNS GC 4537 = system: CNS GC 4537
Procedure, shortened: as §1

E. faecalis GC 842 = settings: Enterococcus faecalis, GC842
Procedure, shortened: as §1

S. aureus GC 1131 = settings: Staphylococcus aureus, GC1131
Procedure, shortened: as §1

CNS GC 4547 = system: CNS GC 4547
Procedure, shortened: as §1

S. aureus GC 2216 = settings: Staphylococcus aureus, GC2216
Procedure, shortened: as §1

CNS GC 4538 = system: CNS GC 4538
Procedure, shortened: as §1

E. faecalis GC 2242 = settings: Enterococcus faecalis, GC2242
Procedure, shortened: as §1

S. aureus GC 4536 = settings: Staphylococcus aureus, GC4536
Procedure, shortened: as §1

E. coli GC 2203 = settings: Escherichia coli, GC2203
C. albicans GC 3066 = settings: Candida albicans, GC3066
M. morganii GC 4531 = settings: Morganella morganii, GC4531
K. pneumoniae GC 4534 = settings: Klebsiella pneumoniae, GC4534
P. aeruginosa GC 2214 = settings: Pseudomonas aeruginosa, GC2214
[1] = E. cloacae GC 3783, read-out: MIC
[2] = P. aeruginosa GC 4532, read-out: MIC
[3] = S. marcescens GC 4077, read-out: MIC
[4] = E. faecalis GC 4555, read-out: MIC
[5] = E. faecalis GC 842, read-out: MIC
[6] = S. aureus GC 1131, read-out: MIC
[7] = S. aureus GC 2216, read-out: MIC
[8] = E. faecalis GC 2242, read-out: MIC
[9] = S. aureus GC 4536, read-out: MIC
[10] = C. albicans GC 3066, read-out: MIC
[11] = M. morganii GC 4531, read-out: MIC
[12] = K. pneumoniae GC 4534, read-out: MIC
[13] = P. aeruginosa GC 2214, read-out: MIC

Structure (SMILES) | MIC (E. cloacae GC 3783; [1]) [µg/mL] | MIC (P. aeruginosa GC 4532; [2]) [µg/mL] | MIC (E. coli GC 3226; E. coli GC 3226, read-out: MIC) [µg/mL] | MIC (E. coli GC 4560; E. coli GC 4560, read-out: MIC) [µg/mL] | MIC (S. marcescens GC 4077; [3]) [µg/mL] | MIC (E. coli GC 4559; E. coli GC 4559, read-out: MIC) [µg/mL] | MIC (E. faecalis GC 4555; [4]) [µg/mL] | MIC (CNS GC 4537; CNS GC 4537, read-out: MIC) [µg/mL] | MIC (E. faecalis GC 842; [5]) [µg/mL] | MIC (S. aureus GC 1131; [6]) [µg/mL] | MIC (CNS GC 4547; CNS GC 4547, read-out: MIC) [µg/mL] | MIC (S. aureus GC 2216; [7]) [µg/mL] | MIC (CNS GC 4538; CNS GC 4538, read-out: MIC) [µg/mL] | MIC (E. faecalis GC 2242; [8]) [µg/mL] | MIC (S. aureus GC 4536; [9]) [µg/mL] | MIC (E. coli GC 2203; E. coli GC 2203, read-out: MIC) [µg/mL] | MIC (C. albicans GC 3066; [10]) [µg/mL] | MIC (M. morganii GC 4531; [11]) [µg/mL] | MIC (K. pneumoniae GC 4534; [12]) [µg/mL] | MIC (P. aeruginosa GC 2214; [13]) [µg/mL] | other results
COc1ccc(Cn2c(=O)ccn([C@@H]3OC([C@H](O)[C@H](NCCCNC(=O)C(NC(=O)[C@H](CCCNC(=N)N[N+](=O)[O-])NC(=O)N[C@H](C(=O)OCc4ccccc4)C(C)C)[C@@H](C)O)C(=O)OC(C)(C)C)[C@@H](O[Si](C)(C)C(C)(C)C)[C@H]3O[Si](C)(C)C(C)(C)C)c2=O)cc1 (stereo partly drawn) [Example 30, 1-Benzyl 17-(tert-butyl)(2S,6S,9S,16S)-16-[(R)-[(3R,4R,5R)-3,4-bis{[tert-butyl(dimethyl)silyl]oxy}-5-(3-(4-methoxybenzyl)-2,4-dioxo-3,4-dihydro-1(2H)-pyrimidinyl)tetrahydro-2-furanyl](hydroxy)methyl]-6-(3-{[(2,2-dioxido-2lambda˜1˜-diazanyl)(imino)methyl]amino}propyl)-9-[(1S)-1-hydroxyethyl]-2-isopropyl-4,7,10-trioxo-3,5,8,11,15-pentaazaheptadecane-1,17-dioate] | – | – | – | – | – | – | – | – | – | – | – | – | – | – | – | – | – | – | – | – | MIC (E. cloacae GC 3783): 128 µg/mL (≈ 97.4 µM); MIC (P. aeruginosa GC 4532): 64 µg/mL (≈ 48.7 µM); MIC (E. coli GC 3226): > 128 µg/mL; MIC (E. coli GC 4560): 64 µg/mL (≈ 48.7 µM); MIC (S. marcescens GC 4077): 128 µg/mL (≈ 97.4 µM); MIC (E. coli GC 4559): > 128 µg/mL; MIC (E. faecalis GC 4555): 64 µg/mL (≈ 48.7 µM); MIC (CNS GC 4537): 128 µg/mL (≈ 97.4 µM); MIC (E. faecalis GC 842): 128 µg/mL (≈ 97.4 µM); MIC (S. aureus GC 1131): 128 µg/mL (≈ 97.4 µM); MIC (CNS GC 4547): 128 µg/mL (≈ 97.4 µM); MIC (S. aureus GC 2216): 128 µg/mL (≈ 97.4 µM); MIC (CNS GC 4538): 128 µg/mL (≈ 97.4 µM); MIC (E. faecalis GC 2242): 64 µg/mL (≈ 48.7 µM); MIC (S. aureus GC 4536): 128 µg/mL (≈ 97.4 µM); MIC (E. coli GC 2203): > 128 µg/mL; MIC (C. albicans GC 3066): 64 µg/mL (≈ 48.7 µM); MIC (M. morganii GC 4531): 128 µg/mL (≈ 97.4 µM); MIC (K. pneumoniae GC 4534): 128 µg/mL (≈ 97.4 µM); MIC (P. aeruginosa GC 2214): 64 µg/mL (≈ 48.7 µM)
CCOC(=O)C(NCCCNC(=O)[C@@H](NC(=O)OCc1ccccc1)C(C)O)C(O)[C@H]1O[C@H](n2ccc(=O)[nH]c2=O)[C@H](OC(C)=O)[C@@H]1OC(C)=O (stereo partly drawn) [Example 31a, Ethyl (5S)-12-[(R)-[(2R,3R,4R,5S)-3,4-bis(acetyloxy)-5-(2,4-dioxo-3,4-dihydro-1(2H)-pyrimidinyl)tetrahydro-2-furanyl](hydroxy)methyl]-5-[(1S)-1-hydroxyethyl]-3,6-dioxo-1-phenyl-2-oxa-4,7,11-triazatridecan-13-oate] | 128 (≈ 177 µM) | 128 (≈ 177 µM) | 128 (≈ 177 µM) | 128 (≈ 177 µM) | 128 (≈ 177 µM) | > 128 | 128 (≈ 177 µM) | > 128 | 128 (≈ 177 µM) | > 128 | > 128 | > 128 | > 128 | 128 (≈ 177 µM) | > 128 | 128 (≈ 177 µM) | 128 (≈ 177 µM) | 128 (≈ 177 µM) | 128 (≈ 177 µM) | 128 (≈ 177 µM) | –
CCOC(=O)C(NCCCNC(=O)[C@@H](N)[C@H](C)O)[C@@H](O)[C@H]1O[C@H](n2ccc(=O)[nH]c2=O)[C@H](OC(C)=O)[C@@H]1OC(C)=O (stereo partly drawn) [Example 32, Ethyl (3R)-2-[(3-{[(2S,3S)-2-amino-3-hydroxybutanoyl]amino}propyl)amino]-3-[(2R,3R,4R,5S)-3,4-bis(acetyloxy)-5-(2,4-dioxo-3,4-dihydro-1(2H)-pyrimidinyl)tetrahydro-2-furanyl]-3-hydroxypropanoate] | > 128 | > 128 | > 128 | > 128 | > 128 | > 128 | > 128 | > 128 | > 128 | > 128 | > 128 | > 128 | > 128 | > 128 | > 128 | > 128 | > 128 | > 128 | > 128 | > 128 | –
